Experimental data as given in a melting point compilation (Tetko et al.; mined from patent text by program, amines drawn as free bases though some values may be those of a salt).

Structure (SMILES) | melting point [°C]
CC(C)(C)C(NC(=O)Cc1ccc(C#N)cc1)NC(=NC#N)Nc1cccc2ncccc12 (configuration not stated) | 194 to 196
CC(C)(C)OC(=O)c1nn(-c2ccc(Cl)cc2Cl)c(-c2ccc(Cl)cc2)c1CC#N | 168
CC(C)(C)CCNC(=O)c1coc(C2C3CCC(O3)C2Cc2ccccc2CCC(=O)O)n1 (configuration not stated) | 160 to 162
Cn1c(Cc2cccc(C(F)(F)F)c2)nc2c(-c3cccc(C(=O)NCCC#N)c3)cccc21 | 168 to 169
CN(C)CCNC(=O)c1cccc(-c2ccc3c(c2)N(Cc2ccc(Cl)cc2Cl)CC3)c1 | 122 to 123
CCC(=O)NCC1CC1c1cccc2nc(C)sc12 (configuration not stated) | 59 to 61
Cc1ccccc1C(=NC(=Nc1ccccc1)N1CCC(=O)CC1)Nc1ccc(F)cc1 | 234 to 235
COCc1nc2c(N)nc3ccccc3c2s1 | 183 to 185
CCC(=O)OCCN1CCc2cc(Nc3ncc(Cl)c(Nc4ccccc4S(=O)(=O)N(C)C)n3)c(OC)cc2CC1 | 40
Cc1ccc(C2CC(=O)CC(c3ccc(C)cc3)N2C)cc1 (configuration not stated) | 105 to 107
CC1(C(=O)c2c[nH]c3ncc(-c4cccc(N5CCCC5)c4)nc23)CCCCCC1 | 192 to 193
N#CC(=Cc1ccc(O)c(O)c1)C(N)=O | 247
N#CCN1CCOC(c2ccccc2)(c2ccccc2)CC1 | 119 to 121
CC1(C)C(=O)N(c2ccc([N+](=O)[O-])c(C(F)(F)F)c2)C(=O)N1CCCN1C(=O)N(c2ccc([N+](=O)[O-])c(C(F)(F)F)c2)C(=O)C1(C)C | 164 to 165
COc1ccc(S(=O)(=O)N(Cc2cccnc2)c2c(C(=O)O)cc(C)cc2-c2ccco2)cc1 | 82
Cn1cc(-c2cc(-c3cnc(N)c(C(F)(F)F)c3)ccn2)n(-c2ccc(C(C)(C)C#N)cc2)c1=O | 195
CCCCNc1cccc([N+](=O)[O-])c1C#N | 72 to 74
CCCCCCCCCCCCCCOc1cn(Cc2ccccc2)c(CBr)cc1=O | 135 to 137
O=C1CC(CCc2ccccc2)Nc2ccccc2N1Cc1ccccc1 (configuration not stated) | 135 to 137
CC(C)Oc1ccnc2[nH]ccc12 | 182 to 184
COc1cc2c(=O)n(C(C)CN(C)C)c3c4cc5c(cc4ncc3c2cc1OC)OCO5 (configuration not stated) | 186 to 187

Structure (SMILES) | melting point [°C]
CCN(CC)C(=O)c1cn(-c2cccc(Cl)c2)cn1 | 105
CCOC(=O)C1c2c([nH]c3ccccc23)C2=C(CCC2)C1C#N (configuration not stated) | 192 to 195
O=S(=O)(CCCc1nc(-c2ccc(F)cc2)c(-c2ccncc2)[nH]1)c1ccccc1 | 109 to 110
N#Cc1c(N2CCc3ccccc3CC2)nc(CCO)[nH]c1=O | 184 to 188
CC(=O)N1CCc2cc(O)ccc2C1 | 135 to 136
CN(C)CCCCC(=O)NC(Cc1c[nH]c2ccccc12)C(=O)CCc1cc(C(F)(F)F)cc(C(F)(F)F)c1 (configuration not stated) | 140
O=C(C=Cc1cccnc1)NCCCCC1CCN(C2c3ccccc3CSc3ccccc32)CC1 (configuration not stated) | 89 to 91
Cc1c(N)cccc1CO | 104 to 106
CCCCc1ccc(C(=O)Nc2cc(CCCC)c(NC(=O)c3ccc(CCCC)cc3)c3c2C(=O)c2ccccc2C3=O)cc1 | 180 to 181
CC(=NC1CCCCC1)NC12CC3CC(CC(C3)C1)C2 | 185 to 187
N#Cc1ccc2[nH]cc(C=C[N+](=O)[O-])c2c1 | 217 to 220
CNCCCCN1CC[C@H](NC(=O)c2cc(Cl)c(N)cc2OC)[C@H](OC)C1 (relative stereo) | 129
COc1cc2c(cc1OCc1ccccc1)CCN(Cc1cccnc1)C2 | 78 to 79
CCCn1nc2c(N)nc3ccccc3c2c1CCNC(=O)CC | 184 to 185
COC(=O)c1cncn1C(c1ccccc1)c1ccccn1 (configuration not stated) | 96.3
COC[C@H]1C[C@H]1c1ccccc1 (relative stereo) | 46 to 50
Cc1cc(O)c(S(=O)(=O)CC2CCCCC2)c(=O)o1 | 104 to 106
CC(C)(C)OC(=O)N(Cc1ccc(C(=O)NCC(=N)NO)cc1)c1ccc(C(C)(C)C)cc1 | 154 to 156
COc1cccc(CNC(=O)c2nc3scc(C(=O)NCc4ccc(C(=O)O)cc4)c3c(=O)[nH]2)c1 | 254 to 255
COc1cc2c(cc1OC)CCCC(C(=O)N1CCNCC1)=C2 | 137 to 138
CCOC(=O)C1=C(C)Nc2nc[nH]c(=O)c2C1c1ccccc1 (configuration not stated) | 303 to 305

Structure (SMILES) | melting point [°C]
O=C(O)C=Cc1cc(N2CCNCC2)ccc1[N+](=O)[O-] | 229 to 237
CN(C)CCN1C(=O)C(N)C(=O)N(CC2CCCCC2)c2ccccc21 (configuration not stated) | 94 to 95
COc1nc2ccccc2nc1NC(=O)N1CCN(c2c(C)c(C)cc(C)c2C)CC1 | 237 to 239
Cc1nn(C)c(C)c1N1CCN(c2c(C)c(C)c3c(c2C)CC(C)(C)O3)CC1 | 162 to 164
CC(=O)C(=O)C(=O)OC(C)(C)C | 62 to 66
O=C(Nc1cc(-c2nc(-c3ccco3)no2)ccc1Cl)Oc1ccccc1 | 177 to 178
Cc1[nH]c(C(=O)NC2CCN(c3cc(C(=O)O)nc4ccccc34)CC2)c(Cl)c1Cl | 254 to 256
COC(=O)C(=O)N1C(=O)[C@@H](NC(=O)OC(C)(C)C)[C@@H]1OC(C)=O | 144 to 146
O=C(c1ccc(Cl)cc1)c1cccnc1N1CCCCC1=O | 154 to 156
CCCCNC(=O)OCCCc1ccc(OCCOC)cc1Oc1ncc(C(F)(F)F)cc1Cl | 91.7 to 91.8
CN1CCOc2ccc(S(=O)(=O)n3c(Cc4ccc(C(=O)O)s4)cc4cc(C(F)(F)F)ccc43)cc21 | 120 to 144
CC(C)(C)OC(=O)c1cccc(NC(N)=O)c1 | 230 to 232
COc1cc2c(cc1OCc1ccccc1)C(c1ccccc1)NCC2 (configuration not stated) | 123 to 125
CCOC(=O)c1cccc(Cc2ccc3ccccc3c2O)c1 | 86 to 87
N#CCN1C2CCC1CC(OC(c1ccccc1)c1ccccc1)C2 (configuration not stated) | 94 to 97
CCOC(=O)C1=C(C)NC(C)=C(C(=O)OCC)C1c1ccccc1/C=C/C(=O)OCC(C)C | 172 to 174
Clc1ccc(N2CCN(Cc3n[nH]c4c(Cl)cccc34)CC2)nc1 | 150 to 152
COc1ccc(C(=O)C#CCO)cc1 | 84 to 85
CON=C(C(=O)NC1C(=O)N2C(C(=O)O)=C(CSc3nnnn3C)SCC12)c1csc(N)n1 (configuration not stated) | 180
Cc1ncc2n1-c1ccc(Cl)cc1C(c1ccccc1F)=NC2O (configuration not stated) | 185 to 186

Now from value to compound:

melting point [°C] | Structure (SMILES)
165 | Cn1cncc1C(N)(c1ccc(Cl)cc1)c1ccc2c(c1)c(CCc1cccc(Cl)c1)cc(=O)n2C (configuration not stated)
155 | COC(=O)C(Cc1ccc(OCCc2nc(-c3ccccc3)oc2C)cc1)C(N)=O (configuration not stated)
233 to 236 | COc1ccc(Oc2nc(Nc3cccc(C(=O)O)c3)nc(Oc3ccccc3)n2)cc1
137 to 139 | FC(F)(F)c1cccc(-c2cc(Cl)n3nccc3n2)c1
116 to 119 | COc1ccc(NC2=NN(c3cccnc3)CC2)cc1
156 to 158 | O=C(Nc1ccc(C2(O)CCN(C(=O)OCc3ccccc3)CC2)cc1)OCc1ccccc1
157 to 158 | Cc1cnc2c(c1)C[C@H](Cc1ccc(O)cc1)CC2
108 to 111 | CC(=O)C(Cl)=NNc1ccc(Oc2ccccc2)cc1
142 to 144 | CCOCc1nc2c(N)nc3cc(OCCCN4CCCC4=O)ccc3c2n1CCCCN1CCCS1(=O)=O
166 to 167 | CC(C)(C)OC(=O)N(Cc1ccc(C2CCCCC2)cc1)c1nc(N2CCOCC2)c2ncn(CC(=O)O)c2n1
131 | C[C@@H](CO)Oc1cc(Oc2ccc(C(=O)N3CCC3)cc2)cc(C(=O)Nc2ccn(C)n2)c1
141 to 142 | Cc1ccc2c(Br)c(Cl)cc([N+](=O)[O-])c2n1
183 to 184 | Cc1c(C(=O)Cl)ccc(S(C)(=O)=O)c1C1=NOCC1
73 to 74 | OCCSC/C=C/c1ccc(Cc2cccnc2)cc1
88 to 90 | Nc1cccc(Cn2c(-c3ccc(Nc4cncnc4)cc3)ccc2-c2ccccc2Cl)n1
130 to 132 | Cn1cc(Br)cc(Nc2ccc(N3CCN(C(=O)OC(C)(C)C)CC3=O)cn2)c1=O
97 to 99 | COc1ccc(CCNC2CCCc3c2ccc(=O)n3C)cc1 (configuration not stated)
228 | O=C(Nc1ncc(C(F)(F)F)o1)C1c2ccccc2Oc2c(F)cccc21 (racemic)

melting point [°C] | Structure (SMILES)
170 to 172 | CCc1nc2c(N)nc(C)c(C)c2n1CCOCCNC(=O)C1CCCCC1
252 to 256 | O=c1cc(Nc2cccc(-c3ccncc3)c2)c1=O
95 to 96 | COc1ccc(COc2c(C)c(C)c3c(c2C)C(c2ccc(C(C)C)cc2)C(C)(C)O3)cc1 (configuration not stated)
90 to 93 | OCc1nc(Cl)cc(N2CCCC2)n1
235 to 237 | CNC(=O)c1ccccc1Nc1nc(Nc2cc3c(cc2OC)N(C)C(=O)OCC3)ncc1Cl
145 | CC(C)(C)OC(=O)Nc1ccccc1O
114 to 117 | COC1C(O)C(CO)OC1n1cnc(C(N)=O)c1N (configuration not stated)
128 to 129 | CS(=O)(=O)c1ccc(Oc2ccc(Br)cc2)cc1
128 to 129 | O=C(O)CCCc1cccc(OCc2cn(-c3ccc(C(F)(F)F)cn3)nc2C2CCCCC2)c1
80 | CN(C)C(=O)CCCCC(=O)O
86 to 87 | CSc1ccc(C(O)CBr)cc1Cl (configuration not stated)
198 | O=C(Nc1cccc(Br)c1)Oc1ccc2c(c1)CCCN2
87 to 89 | CC[C@@H](c1ccccc1)N(Cc1ccc(C(=O)OC)c(F)c1F)S(=O)(=O)c1ccc(Cl)cc1
121 to 122 | CC[C@@H](COC)n1cc(Cl)nc(N2CCc3cc(Br)cc(Cl)c32)c1=O
114 to 116 | NC(=O)CCC(C(=O)O)N1C(=O)c2cccc(NCc3ccco3)c2C1=O (configuration not stated)
152 to 158 | O=C(NCCCN1CCN(c2ccccc2OCC(F)(F)F)CC1)c1csc2c(=O)cc(-c3ccccc3)oc12
72 to 75 | O=Cc1cccc(OCc2nc(-c3ccccc3)c(-c3ccccc3)o2)c1
